Reference: US8076487B2, “Pyridone derivative and herbicide” (Kumiai Chemical Industry Co., Ltd., priority 2006, dated 2011)

Columns and labels:
Assay type in all cases: in vivo
[1] = system: Japanese bulrush (Scirpus juncoides Roxb.); test: Test Example 1: herbicidal effect by soil application to paddy field; conditions: paddy field soil application; active ingredient 1,000 g per 1 hectare; wettable powder added dropwise to water surface the day after sowing; examined on the 21st day after application
How it was run: (§1)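 Under greenhouse conditions, seeds sown on puddled paddy soil in 100 cm2 pots under 3 cm of standing water received the test compound; injury was assessed with a standard scoring scheme three weeks (day 21) after treatment.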

[2] = system: early watergrass (Echinochloa oryzicola Vasing); test: as above; conditions: paddy field soil application; active ingredient 1,000 g per 1 hectare; wettable powder added dropwise to water surface the day after sowing; examined on the 21st day after application
How it was run: as §1

[3] = system: heartshape false pickerelweed (Monochoria vaginalis (Burm.f.) C.Presl); test: as above; conditions: paddy field soil application; active ingredient 1,000 g per 1 hectare; wettable powder added dropwise to water surface the day after sowing; examined on the 21st day after application
How it was run: as §1

[4] = system: barnyardgrass (Echinochloa crus-galli (L.) P. Beauv. var. crus-galli); test: Test Example 2: herbicidal effect by soil application to upland field; conditions: soil surface spray, upland field soil, 1,000 g active ingredient per hectare, 21st day after application
How it was run: (§2)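 Seeds were sown in field soil, covered, and the soil surface sprayed with a water-diluted wettable powder at 1,000 g active ingredient per hectare in 1,000 L/ha. Plants grew in a greenhouse, and herbicidal effect was rated against a standard scale 21 days after application.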

[5] = system: green foxtail (Setaria viridis (L.) P. Beauv.); test: as above; conditions: soil surface spray, upland field soil, 1,000 g active ingredient per hectare, 21st day after application
How it was run: as §2

[6] = system: slender amaranth (Amaranthus viridis L.); test: as above; conditions: soil surface spray, upland field soil, 1,000 g active ingredient per hectare, 21st day after application
How it was run: as §2

[7] = system: velvetleaf (Abutilon theophrasti medicus); test: as above; conditions: soil surface spray, upland field soil, 1,000 g active ingredient per hectare, 21st day after application
How it was run: as §2

[8] = system: barnyardgrass (Echinochloa crus-galli (L.) P. Beauv. var. crus-galli); test: Test Example 3: herbicidal effect by application to upland field (foliage treatment); conditions: 14th day after application; for herbicidal effect, Barnyardgrass: foliage treatment, 1,000 g active ingredient per 1 hectare, greenhouse; for herbicidal effect (index), Barnyardgrass: foliage treatment, plants grown two weeks, 1,000 g active ingredient per hectare
How it was run: (§3)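 Two weeks after sowing in field soil under greenhouse conditions, seedlings receive a top-down foliar spray of wettable powder diluted in water at an active-ingredient rate of 1,000 g per hectare. Effect is rated against a standard 14 days post-treatment.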

[9] = system: green foxtail (Setaria viridis (L.) P. Beauv.); test: as above; conditions: 14th day after application; for herbicidal effect, Green Foxtail: foliage treatment, 1,000 g active ingredient per 1 hectare, greenhouse; for herbicidal effect (index), Green Foxtail: foliage treatment, plants grown two weeks, 1,000 g active ingredient per hectare
How it was run: as §3

[10] = system: slender amaranth (Amaranthus viridis L.); test: as above; conditions: 14th day after application; for herbicidal effect, Slender Amaranth: foliage treatment, 1,000 g active ingredient per 1 hectare, greenhouse; for herbicidal effect (index), Slender Amaranth: foliage treatment, plants grown two weeks, 1,000 g active ingredient per hectare
How it was run: as §3

[11] = system: velvetleaf (Abutilon theophrasti medicus); test: as above; conditions: 14th day after application; for herbicidal effect, Velvetleaf: foliage treatment, 1,000 g active ingredient per 1 hectare, greenhouse; for herbicidal effect (index), Velvetleaf: foliage treatment, plants grown two weeks, 1,000 g active ingredient per hectare
How it was run: as §3

SMILES	herbicidal effect, Scirpus juncoides Roxb. [1]	herbicidal effect, Echinochloa oryzicola Vasing [2]	herbicidal effect, Monochoria vaginalis (Burm. f.) C. Presl [3]	herbicidal effect (index), Barnyardgrass [4]	herbicidal effect (index), Green Foxtail [5]	herbicidal effect (index), Slender Amaranth [6]	herbicidal effect (index), Velvetleaf [7]	herbicidal effect, Barnyardgrass [8]	herbicidal effect, Green Foxtail [9]	herbicidal effect, Slender Amaranth [10]	herbicidal effect, Velvetleaf [11]	herbicidal effect (index), Barnyardgrass [8]	herbicidal effect (index), Green Foxtail [9]	herbicidal effect (index), Slender Amaranth [10]	herbicidal effect (index), Velvetleaf [11]
Cc1ccc(-n2c(C(F)(F)F)ccc(C(=O)C3=C(O)C4CCC(C4)C3=O)c2=O)cc1 (stereo not shown) [III-35]	5 (90% or more of herbicidal effect and crop phytotoxicity)	5 (90% or more of herbicidal effect and crop phytotoxicity)	5 (90% or more of herbicidal effect and crop phytotoxicity)	5 (90% or more of herbicidal effect and crop phytotoxicity)	5 (90% or more of herbicidal effect and crop phytotoxicity)	5 (90% or more of herbicidal effect and crop phytotoxicity)	5 (90% or more of herbicidal effect and crop phytotoxicity)	5 (90% or more of herbicidal effect and crop phytotoxicity)	5 (90% or more of herbicidal effect and crop phytotoxicity)	5 (90% or more of herbicidal effect and crop phytotoxicity)	5 (90% or more of herbicidal effect and crop phytotoxicity)	–	–	–	–
O=C1CCCC(O)=C1C(=O)c1ccc(C(F)(F)F)n(-c2cc(F)ccc2F)c1=O [I-103]	5 (90% or more of herbicidal effect and crop phytotoxicity)	5 (90% or more of herbicidal effect and crop phytotoxicity)	5 (90% or more of herbicidal effect and crop phytotoxicity)	5 (90% or more of herbicidal effect and crop phytotoxicity)	5 (90% or more of herbicidal effect and crop phytotoxicity)	5 (90% or more of herbicidal effect and crop phytotoxicity)	5 (90% or more of herbicidal effect and crop phytotoxicity)	–	–	–	–	5 (90% or more of herbicidal effect and crop phytotoxicity)	5 (90% or more of herbicidal effect and crop phytotoxicity)	5 (90% or more of herbicidal effect and crop phytotoxicity)	5 (90% or more of herbicidal effect and crop phytotoxicity)
COc1ccccc1-n1c(C(F)(F)F)ccc(C(=O)C2=C(O)CCCC2=O)c1=O [I-76]	5 (90% or more of herbicidal effect and crop phytotoxicity)	5 (90% or more of herbicidal effect and crop phytotoxicity)	5 (90% or more of herbicidal effect and crop phytotoxicity)	5 (90% or more of herbicidal effect and crop phytotoxicity)	5 (90% or more of herbicidal effect and crop phytotoxicity)	5 (90% or more of herbicidal effect and crop phytotoxicity)	5 (90% or more of herbicidal effect and crop phytotoxicity)	–	–	–	–	5 (90% or more of herbicidal effect and crop phytotoxicity)	3 (50 to less than 70% of herbicidal effect and crop phytotoxicity)	5 (90% or more of herbicidal effect and crop phytotoxicity)	5 (90% or more of herbicidal effect and crop phytotoxicity)
CCCS(=O)(=O)Oc1c(C(=O)c2ccc(C(F)(F)F)n(CC(C)OC)c2=O)cnn1C (stereo not shown) [IV-39]	5 (90% or more of herbicidal effect and crop phytotoxicity)	5 (90% or more of herbicidal effect and crop phytotoxicity)	5 (90% or more of herbicidal effect and crop phytotoxicity)	5 (90% or more of herbicidal effect and crop phytotoxicity)	3 (50 to less than 70% of herbicidal effect and crop phytotoxicity)	4 (70 to less than 90% of herbicidal effect and crop phytotoxicity)	4 (70 to less than 90% of herbicidal effect and crop phytotoxicity)	5 (90% or more of herbicidal effect and crop phytotoxicity)	3 (50 to less than 70% of herbicidal effect and crop phytotoxicity)	5 (90% or more of herbicidal effect and crop phytotoxicity)	5 (90% or more of herbicidal effect and crop phytotoxicity)	–	–	–	–
COCCOCCn1c(C(F)(F)F)ccc(C(=O)C2=C(O)C(C)(C)CCC2=O)c1=O [II-31]	5 (90% or more of herbicidal effect and crop phytotoxicity)	5 (90% or more of herbicidal effect and crop phytotoxicity)	5 (90% or more of herbicidal effect and crop phytotoxicity)	5 (90% or more of herbicidal effect and crop phytotoxicity)	5 (90% or more of herbicidal effect and crop phytotoxicity)	5 (90% or more of herbicidal effect and crop phytotoxicity)	5 (90% or more of herbicidal effect and crop phytotoxicity)	5 (90% or more of herbicidal effect and crop phytotoxicity)	5 (90% or more of herbicidal effect and crop phytotoxicity)	5 (90% or more of herbicidal effect and crop phytotoxicity)	5 (90% or more of herbicidal effect and crop phytotoxicity)	–	–	–	–
COc1ccc(-n2c(C(F)(F)F)ccc(C(=O)c3cnn(C)c3O)c2=O)cc1F [IV-92]	5 (90% or more of herbicidal effect and crop phytotoxicity)	5 (90% or more of herbicidal effect and crop phytotoxicity)	5 (90% or more of herbicidal effect and crop phytotoxicity)	5 (90% or more of herbicidal effect and crop phytotoxicity)	5 (90% or more of herbicidal effect and crop phytotoxicity)	5 (90% or more of herbicidal effect and crop phytotoxicity)	5 (90% or more of herbicidal effect and crop phytotoxicity)	4 (70 to less than 90% of herbicidal effect and crop phytotoxicity)	4 (70 to less than 90% of herbicidal effect and crop phytotoxicity)	5 (90% or more of herbicidal effect and crop phytotoxicity)	4 (70 to less than 90% of herbicidal effect and crop phytotoxicity)	–	–	–	–
O=C1CCCC(O)=C1C(=O)c1ccc(C(F)(F)F)n(-c2cccc(Cl)c2)c1=O [I-74]	5 (90% or more of herbicidal effect and crop phytotoxicity)	5 (90% or more of herbicidal effect and crop phytotoxicity)	5 (90% or more of herbicidal effect and crop phytotoxicity)	5 (90% or more of herbicidal effect and crop phytotoxicity)	5 (90% or more of herbicidal effect and crop phytotoxicity)	5 (90% or more of herbicidal effect and crop phytotoxicity)	5 (90% or more of herbicidal effect and crop phytotoxicity)	–	–	–	–	5 (90% or more of herbicidal effect and crop phytotoxicity)	5 (90% or more of herbicidal effect and crop phytotoxicity)	5 (90% or more of herbicidal effect and crop phytotoxicity)	5 (90% or more of herbicidal effect and crop phytotoxicity)
O=C1CCCC(O)=C1C(=O)c1ccc(C(F)(F)F)n(NCCCF)c1=O [I-168]	5 (90% or more of herbicidal effect and crop phytotoxicity)	5 (90% or more of herbicidal effect and crop phytotoxicity)	5 (90% or more of herbicidal effect and crop phytotoxicity)	5 (90% or more of herbicidal effect and crop phytotoxicity)	5 (90% or more of herbicidal effect and crop phytotoxicity)	5 (90% or more of herbicidal effect and crop phytotoxicity)	5 (90% or more of herbicidal effect and crop phytotoxicity)	5 (90% or more of herbicidal effect and crop phytotoxicity)	5 (90% or more of herbicidal effect and crop phytotoxicity)	5 (90% or more of herbicidal effect and crop phytotoxicity)	5 (90% or more of herbicidal effect and crop phytotoxicity)	–	–	–	–
